Patent publication US10081662B2, “Modified relaxin B chain peptides” (The Florey Institute of Neuroscience and Mental Health, priority 2014, dated 2018)
Peptide text beside a SMILES is read from it.

What was measured:
[1] = target: T1, fusion protein comprising the extracellular domain of RXFP1 and the transmembrane domain of CD8 (7BP cells) (Homo sapiens, UniProt Q9HBX9); assay: Eu-labelled H2 relaxin competition binding to 7BP cells; settings: 7BP cells
T1 construct: the extracellular domain of RXFP1 and the transmembrane domain of CD8; expressed in transfected cells
T1 sequence (Q9HBX9 1-409 limits assumed): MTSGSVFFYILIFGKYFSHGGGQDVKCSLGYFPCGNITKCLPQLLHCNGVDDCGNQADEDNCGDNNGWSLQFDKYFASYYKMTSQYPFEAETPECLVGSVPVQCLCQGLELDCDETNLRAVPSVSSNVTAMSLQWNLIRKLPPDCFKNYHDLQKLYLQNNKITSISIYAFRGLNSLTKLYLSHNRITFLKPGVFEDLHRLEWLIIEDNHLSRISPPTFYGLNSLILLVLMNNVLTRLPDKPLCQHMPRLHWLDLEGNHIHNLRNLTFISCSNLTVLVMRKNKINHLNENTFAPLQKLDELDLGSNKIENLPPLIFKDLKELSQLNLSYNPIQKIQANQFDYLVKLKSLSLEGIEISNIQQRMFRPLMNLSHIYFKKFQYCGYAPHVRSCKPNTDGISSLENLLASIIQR

MMP-2 = MMP-2 expression by gelatin zymography in rat renal myofibroblasts; assay type: cell-based; settings: 16.80 nM, gelatin zymography and densitometry
Experimental: Renal myofibroblast cells natively expressing human RXFP1 were plated out onto 12-well plates with a density of 50 000 cells per well. Cells were treated with 16.8 nM H2-relaxin and 16.80 nM B7-33 C11.23S. Expression of basal MMP-2 levels was monitored with no treatment applied to wells (control). Each treatment was carried out in duplicates (n=5), for each replicate in Dulbecco's modified Eagle's medium (DMEM) containing 10% fetal calf serum, 2.2% HEPES buffer, 1% L-glutamine and 2% penicillin/strepticillin. The cells were incubated over 48 hrs in a humidified chamber with 5% CO2 at 37.8° C. temperature. Following this, media was aspirated off and experiment continued in serum free media (DMEM containing 2.2% HEPES buffer, 1% L-glutamine, 2% penicillin/strepicillin and 2% lactalbumin hydrolysate) for a further 24 hours in a humidified chamber with 5% CO2 at 37.8° C. […]. Media were then collected from various treatments and gel zymography was carried out.
For determination of MMP-2 expression within various treatments, zymographic assays of gelatinases were carried out. […] (0.05M Tris-HCl pH 7.4, 0.01M CaCl2, 5% Triton X-100, 0.02% sodium azide, 1 μM ZnCl2. The gels were then stained with 0.1% Cootnassie blue containing 40% 2-propanol and destained with 7% acetic acid before analysed by ImageJ software.

[2] = tested on: mouse model of isoproterenol (ISO) induced cardiac fibrosis; assay: Mouse model of isoproterenol-induced cardiomyopathy (cardiac fibrosis); assay type: in vivo; settings: 129SV mice, 14 days, s.c. minipump; relative to isoproterenol treatment
Description: Seven to eight-week old male 129SV mice (which are sensitive to tissue injury and fibrosis) and age-matched female Balb/c mice (which are sensitive to changes in airway hyperresponsiveness) were used for the induction of isoproterenol-induced cardiomyopathy and ovalbumin-induced chronic allergic airways disease, respectively. 16 five week-old male C57BL/6 mice were used in the induction of prostate cancer growth. All animals were obtained from Monash Animal Services (Monash University, Clayton, Victoria, Australia) and housed under standard conditions (maintained on an 12 h light-12 h dark lighting cycle with free access to food and water) in the Department of Pharmacology Animal Room at Monash University.
The mid zone of the male mouse heart and largest lung lobe from female Balb/c mice were fixed in 10% neutral buffered formalin for 24-48 h before being processed and embedded routinely in paraffin wax. Representative sections of tissue, 3-5 um each, were taken and stained with either picrosirius red (Samuel et al. 2011 Lab Invest 91, 675-690) for the detection of interstitial collagen or Masson's trichrome (Royce et al, 2009, Endocrinology 150, 2692-2699) for the detection of subepithelial basement membrane collagen deposition).
Changes in picrosirius-red stained interstitial collagen or epithelial thickness and subepithelial collagen (fibrosis) around the airway lumen from Masson's trichrome-stained sections; which were all captured (at ×20 magnification) using a SPOT digital camera (Q Imaging, Burnaby, BC, Canada) and analysed with Image J 1.3 software (National Institutes of Health, Bethesda, Md.). Four to five fields per mid zone of the heart or 4-5 airways (of 150-350 μm in diameter) per mouse were assessed. Epithelial thickness and subepithelial collagen regions were traced with a digital pen and the thickness of each region calculated by the imaging software. Results were expressed as mean thickness ([…]) of the 4-5 airways sampled.
The apical region of the heart or second largest lung lobe from each mouse was treated as described previously (Samuel C S, et at., 2003, FASEB J 17, 121-123; Royce et at. 2009, Endocrinology 150, 2692-2699) for the determination of hydroxyproline content. Hydroxyproline values were estimated based on a standard curve constructed with serial dilutions of a 0.1 mg/mL stock of trans-4-hydroxyproline-L-proline (Sigma-Aldrich). Hydroxyproline values were then converted to collagen content as detailed previously (Samuel CS, et al. 2004. Endocrinology 145, 4125-4133) and, in turn, divided by the dry weight of each corresponding left ventricular or lung tissue assessed to yield collagen concentration (a measure of fibrosis). […]

## CC[C@H](C)[C@H](NC(=O)[C@H](C)NC(=O)[C@@H](NC(=O)[C@H](CCC(N)=O)NC(=O)[C@H](C)NC(=O)[C@H](CCCNC(=N)N)NC(=O)[C@@H](NC(=O)[C@H](CC(C)C)NC(=O)[C@H](CCC(=O)O)NC(=O)[C@H](CCCNC(=N)N)NC(=O)CNC(=O)[C@H](CO)NC(=O)[C@H](CC(C)C)NC(=O)[C@H](CCCCN)NC(=O)[C@@H](NC(=O)[C@@H](N)C(C)C)[C@@H](C)CC)C(C)C)[C@@H](C)CC)C(=O)N[C@@H](CO)C(=O)NCC(=O)N[C@@H](CCSC)C(=O)N[C@@H](CO)C(=O)N[C@H](C(=O)N[C@@H](Cc1c[nH]c2ccccc12)C(=O)N[C@@H](CO)C(=O)N[C@@H](CCCCN)C(=O)N[C@@H](CCCNC(=N)N)C(=O)N[C@@H](CO)C(=O)N[C@@H](CC(C)C)C(N)=O)[C@@H](C)O [B7-33 C11.23S] (H-VIKLSGRELVRAQIAISGMSTWSKRSL-NH2)
[1]; competition with Eu-labelled H2 relaxin, n ≥ 3, read-out: 7BP Eu-H2 pKi (converted)
  Ki: 22.4 nM
[1]; lower affinity than H2 relaxin, FIG. 2B
  Binding to 7BP cells (in words): strongly bind to 7BP cells
MMP-2
  Induction of MMP-2 expression: levels similar to those induced by the native H2 relaxin
[2]
  Percentage of interstitial collagen in the left ventricle (picrosirius red): significantly reduced
  Total left ventricular collagen concentration (hydroxyproline analysis): significantly reduced
